Tests used:
[1] = Stability against temperature stress as indicated by DSC and DVS data; assay type: physicochemical
Description: As used herein, DVS means Dynamic Vapour Sorption Analysis. Unless stated otherwise, DVSs were performed according to the following equipment and conditions: DVS-1000 instrument by Surface Measurement Systems was used. Samples were prepared by transferring them into an aluminum crucible and loading this into the DVS. A method utilizing two cycles (0% to 90% RH) and (90% to 0% RH) was run. The equilibrium condition for each step was set to a mass constancy of ±0.001% over 60 min and a maximum time limit of 1440 min for each step. This method was undertaken at 25° C. As used herein, DSC means Differential Scanning calorimetry Analysis. Unless stated otherwise, DSCs were performed according to the following equipment and conditions: DSC 822e Mettler Toledo. Crucible: Aluminum crucible with a capacity of 40 μL and with hole the lid. Gas: Dry nitrogen 50 mL/min. Method standard: Heating from 30° C. to 300° C. at a rate of 10° C./min.

[2] = Dynamic Vapour Sorption (DVS) analysis; assay type: physicochemical; conditions: 25° C., first cycle
Description: As used herein, DVS means Dynamic Vapour Sorption Analysis. Unless stated otherwise, DVSs were performed according to the following equipment and conditions: DVS-1000 instrument by Surface Measurement Systems was used. Samples were prepared by transferring them into an aluminum crucible and loading this into the DVS. A method utilizing two cycles (0% to 90% RH) and (90% to 0% RH) was run. The equilibrium condition for each step was set to a mass constancy of ±0.001% over 60 min and a maximum time limit of 1440 min for each step. This method was undertaken at 25° C.

Row | Substance | stability against temperature stress for formulation into an oral solid dosage form [1] | water sorption by the sample (DVS) ([2]; at 90% relative humidity) | polymorphic change associated with the sorption/desorption phenomenon in DVS, based on XRPD analysis ([2]; 70-80% relative humidity) | water sorption by the sample (DVS) ([2]; at 70% relative humidity) | water desorption by the sample (DVS) ([2]; at 80% relative humidity) [%]
1 | valbenazine ditosylate [Form E] | stable against temperature stress | approximately 1.4% |  |  | 
2 | valbenazine ditosylate [Form D] |  |  | transformation to polymorphic form II | approximately 6.0% | 4.0
